Assay [1] relates to PCP-induced cognitive deficits. Kind of assay: Rodent novel object recognition (NOR) assay in phencyclidine-induced cognitive deficits modeling schizophrenia. Further details: key to time spent exploring novel object (TN) / time spent exploring familiar object (TF): exploration time in seconds. As to conditions: PCP-treated rats, 2 h ITI. The format is in vivo, rat. From the text:
Rodent Novel Object Recognition (NOR) Assay in Phencyclidine-Induced Cognitive Deficits Modeling Schizophrenia
The aim of this study was to investigate the ability of the compounds of the invention to improve subchronic PCP-induced impairment in cognition memory using the NOR task in the rat, a paradigm of relevance to cognition in schizophrenia. Adult male Sprague-Dawley rats (250-350 g; Harlan, USA) were used for the experiments Animal were acclimated to the facility for 7 days prior to experimentation. Seven groups of 14 animals per group were used for the experiment. One group of animals received vehicle (0.9% saline twice daily) and the remaining six groups received PCP (2.5 mg/kg, s.c. twice daily) for 7 days, followed by 5-days drug free. On the test day, the animals were allowed to acclimate to the testing room for 30 min prior to initiation of experiments. Experiments were carried out in a white plexiglass chamber, designated as experimental arena. The arena was placed in a dark experimental room that was illuminated by a halogen lamp, providing a dim light to the arena.
Animals were placed in the arena for a 5 minute period to freely explore the test chamber in the absence of objects (habituation). Animals were then returned to their home cage immediately upon completion of habituation for a 120 min period. (1R,3R,5S)-8-Methyl-8-azabicyclo[3.2.1]octan-3-yl 1-(2,2,2-trifluoroethyl)-1H-indole-3-carboxylate (0.1, 1, 10 mg/kg s.c.), or vehicle (veh, saline) was administered 120 min prior to T1 and galantamine (5 mg/kg, i.p.) was administered 30 min prior to T1. Animals were returned to the arena which contained two identical objects (plastic balls) placed at one end of the arena (acquisition, T1), and allowed to explore for a 5 min period. The time spent exploring the two objects was recorded Animals were once again returned to the home cage for a period of 120 min (ITI).
ITI was followed by the retention phase (T2) where one of the objects presented in the first trial was replaced by a novel object and animals were allowed to explore for an additional 5 min period. Again, the time spent exploring the two objects was recorded.
For the retention phase, the differences between the time spent exploring the familiar object and the novel object were examined. All sessions were recorded and scored blindly for the time exploring objects. Exploration is defined as touching the object or directing nose towards object at a distance less that 2 cm. A minimal exploration criterion was used such that only animals with exploration time of greater than 5 seconds per object were included.
Comparisons of all treatment groups were conducted using a one-way ANOVA followed by a Bonferroni's post hoc test for multiple comparisons.

For assay [2], the target named is 5HT3a receptor expressed in HEK-293T cells (Homo sapiens (Human), UniProt P46098). In words: Inhibition of Ca flux activity of 5HT3 in vitro assay. The format is cell-based. The settings on record: calcium flux, 5HT 216 nM, approximate values. The procedure, abridged:
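HEK-293T cells transiently transfected with human 5HT3a, loaded 1 hour at 37° C with calcium dye in HBSS/20 mM HEPES, preincubated with compound (10^−7 to 10^−10, half-log) 10 minutes at room temperature.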

Where [3] appears, read: 0.1 mg/kg s.c. (bracket prints 0.01 mg/kg).
[4] abbreviates: 1 mg/kg s.c. (bracket prints 0.1 mg/kg).

5HT3a receptor expressed in HEK-293T cells, sequence (P46098 24-478): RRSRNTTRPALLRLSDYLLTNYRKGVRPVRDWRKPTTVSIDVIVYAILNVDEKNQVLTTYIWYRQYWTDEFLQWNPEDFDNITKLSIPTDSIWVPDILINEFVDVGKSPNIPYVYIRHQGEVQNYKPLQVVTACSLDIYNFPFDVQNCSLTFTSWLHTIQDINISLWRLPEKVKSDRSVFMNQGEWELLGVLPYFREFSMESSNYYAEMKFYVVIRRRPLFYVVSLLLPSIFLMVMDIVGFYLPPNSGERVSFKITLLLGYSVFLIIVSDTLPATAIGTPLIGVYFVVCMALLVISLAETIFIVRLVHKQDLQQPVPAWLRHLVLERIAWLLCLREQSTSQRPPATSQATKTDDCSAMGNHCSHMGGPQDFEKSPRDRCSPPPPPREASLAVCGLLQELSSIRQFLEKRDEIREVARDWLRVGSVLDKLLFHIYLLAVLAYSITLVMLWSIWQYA

With `CN1[C@@H]2CC[C@H]1C[C@@H](OC(=O)c1cn(CC(F)(F)F)c3ccccc13)C2`, the results for the “time spent exploring familiar object (TF)” value in assay [1] (setting [3]), in assay [1] (setting [4]) and in assay [1] (10 mg/kg s.c.) were 12.5±2.152, 12.7±1.027 and 9.831±1.53, respectively. Besides, the entries for the “time spent exploring novel object (TN)” value in assay [1] (setting [3]), in assay [1] (setting [4]) and in assay [1] (10 mg/kg s.c.) were 22.9±3.65, 25.3±2.51 and 22.8±2.48, respectively. Moreover, the “discrimination between familiar and novel objects” value was “did not demonstrate a statistically significant discrimination” in assay [1] (0.1 mg/kg s.c.), “demonstrated a statistically significant discrimination” in assay [1] (1 mg/kg s.c.) and “demonstrated a statistically significant discrimination” in assay [1] (10 mg/kg s.c.).
With `COc1ccc2c3c1O[C@H]1C[C@@H](O)C=C[C@@]31CCN(C)C2` [Galantamine, galantamine, reference compound], in assay [1] (galantamine 5 mg/kg i.p.), the “discrimination between familiar and novel objects” value is listed as “statistically significant discrimination”; the “time spent exploring familiar object (TF)” value worked out at 11.19±1.376; the “time spent exploring novel object (TN)” value stood at 22.8±2.2.
“N-((1R,5S,7S)-3-oxa-9-azabicyclo[3.3.1]nonan-7-yl)-5-fluoro-1-(2,2,2-trifluoroethyl)-1H-indole-3-carboxamide 2,2,2-trifluoroacetic acid [Example 16]”: the IC50 in assay [2] is 3.25 nM.
“N-((1R,5S,7s)-9-methyl-3-oxa-9-azabicyclo[3.3.1]nonan-7-yl)-1-phenyl-1H-indole-3-carboxamide, 2,2,2-trifluoroacetic acid salt [Example 26]”: the half-maximal inhibitory concentration (IC50) in assay [2] was found to be 0.54 nM.
